Measurements published in patent publication US11084818B2 (HEPO PHARMACEUTICAL CO., LTD., priority 2016, dated 2021).

Key:
hTLR8 = target: T1, hTLR8 (Homo sapiens, UniProt Q9NR97); test: Activation activity test of hTLR8 (HEK-Blue hTLR8 cells, QUANTI-Blue OD650); assay type: cell-based; details: HEK-Blue hTLR8 cells, 24 hours incubation; read-out: TLR8 (EC50)
T1 construct: host or cells: HEK-Blue hTLR8 (HEK293-derived reporter line)
T1 sequence (Q9NR97 27-1041): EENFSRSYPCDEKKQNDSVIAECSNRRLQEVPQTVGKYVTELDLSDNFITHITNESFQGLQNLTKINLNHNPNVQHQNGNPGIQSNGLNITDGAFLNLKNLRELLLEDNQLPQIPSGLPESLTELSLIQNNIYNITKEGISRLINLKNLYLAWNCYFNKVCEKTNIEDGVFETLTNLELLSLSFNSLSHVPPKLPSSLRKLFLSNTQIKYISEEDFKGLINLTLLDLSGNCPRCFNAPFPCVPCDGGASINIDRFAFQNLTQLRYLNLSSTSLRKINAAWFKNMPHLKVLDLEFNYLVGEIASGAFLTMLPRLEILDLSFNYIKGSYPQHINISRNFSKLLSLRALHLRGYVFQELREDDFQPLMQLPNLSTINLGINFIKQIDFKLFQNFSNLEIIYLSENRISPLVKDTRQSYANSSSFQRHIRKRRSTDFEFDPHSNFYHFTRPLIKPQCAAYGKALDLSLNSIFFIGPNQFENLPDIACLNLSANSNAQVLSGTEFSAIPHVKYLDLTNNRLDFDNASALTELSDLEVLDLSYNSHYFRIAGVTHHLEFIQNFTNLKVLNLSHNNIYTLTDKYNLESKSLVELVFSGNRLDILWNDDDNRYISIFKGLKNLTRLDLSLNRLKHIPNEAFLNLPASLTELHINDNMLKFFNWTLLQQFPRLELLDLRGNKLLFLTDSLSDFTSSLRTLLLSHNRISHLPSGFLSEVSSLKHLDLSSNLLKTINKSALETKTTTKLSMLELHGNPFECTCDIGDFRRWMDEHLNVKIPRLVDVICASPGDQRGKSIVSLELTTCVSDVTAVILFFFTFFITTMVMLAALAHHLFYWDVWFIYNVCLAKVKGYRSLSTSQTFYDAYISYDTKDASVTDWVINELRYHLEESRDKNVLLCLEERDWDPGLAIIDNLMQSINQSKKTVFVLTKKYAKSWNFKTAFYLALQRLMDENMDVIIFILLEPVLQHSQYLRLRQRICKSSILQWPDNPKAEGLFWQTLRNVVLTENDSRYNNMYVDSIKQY
Method: (§1) Effect Example 1: Activation Activity Test of hTLR7 and hTLR8
(§2) Cell lines: HEK-Blue™ hTLR7 and HEK-Blue™ hTLR8 (InvivoGen Co.)
(§3) Primary reagents: QUANTI-Blue™ (InvivoGen) and ATPlite 1 Step (PerkinElmer)
(§4) Primary instruments: Automatic Liquid Handling Workstation (Labcyte, Model: Echo), Cell Counter (Countstar, IC1000) and Multifunctional Enzyme Marker (Molecular Device, Flexstation III).
(§5) 2.1 The tested compounds were formulated into a 60 mM concentrated stock solution in DMSO and stored in a nitrogen cabinet.
(§6) 2.3 The T150 cultured cells were taken out from the CO2 incubator and the cell culture supernatant was discarded. The cells were washed with PBS once, followed by addition of about 10 mL of the culture solution. The cells were dissociated by patting the cell culture flask, and gently blown to even by a pipette.
(§7) The cells were counted, and the cell suspension was adjusted to 200,000 cells/mL by the culture solution. Thereafter, 200 μL of diluted cells was added to each well in a 96-well plate containing the compound (40,000 cells/well).
(§8) 2.4 The compounds and cells were incubated in a 5% CO2 incubator at 37° C. for 24 hours.
(§9) 2.5 Compound activity assay: 20 μl of the cell supernatant of each well after induction was added to a cell culture plate containing 180 μL of reagent QUANTI-Blue™, and incubated at 37° C. for 1.5 hours. Thereafter, the optical density absorption (OD650) of each well at 650 nm was measured using a Multifunctional Enzyme Marker: Flexstation III.
(§10) 2.6 Compound Activity: OD650 values were analyzed using GraphPad Prism software and the dose-response curves for the compound were fitted to calculate the EC50 values of the compound.

hTLR7 = target: T2, hTLR7 (Homo sapiens, UniProt Q9NYK1); test: Activation activity test of hTLR7 (HEK-Blue hTLR7 cells, QUANTI-Blue OD650); assay type: cell-based; details: 24 hours incubation, read-out: TLR7 (EC50)
T2 construct: host or cells: HEK-Blue hTLR7 (HEK293-derived reporter line)
T2 sequence (Q9NYK1 27-1049): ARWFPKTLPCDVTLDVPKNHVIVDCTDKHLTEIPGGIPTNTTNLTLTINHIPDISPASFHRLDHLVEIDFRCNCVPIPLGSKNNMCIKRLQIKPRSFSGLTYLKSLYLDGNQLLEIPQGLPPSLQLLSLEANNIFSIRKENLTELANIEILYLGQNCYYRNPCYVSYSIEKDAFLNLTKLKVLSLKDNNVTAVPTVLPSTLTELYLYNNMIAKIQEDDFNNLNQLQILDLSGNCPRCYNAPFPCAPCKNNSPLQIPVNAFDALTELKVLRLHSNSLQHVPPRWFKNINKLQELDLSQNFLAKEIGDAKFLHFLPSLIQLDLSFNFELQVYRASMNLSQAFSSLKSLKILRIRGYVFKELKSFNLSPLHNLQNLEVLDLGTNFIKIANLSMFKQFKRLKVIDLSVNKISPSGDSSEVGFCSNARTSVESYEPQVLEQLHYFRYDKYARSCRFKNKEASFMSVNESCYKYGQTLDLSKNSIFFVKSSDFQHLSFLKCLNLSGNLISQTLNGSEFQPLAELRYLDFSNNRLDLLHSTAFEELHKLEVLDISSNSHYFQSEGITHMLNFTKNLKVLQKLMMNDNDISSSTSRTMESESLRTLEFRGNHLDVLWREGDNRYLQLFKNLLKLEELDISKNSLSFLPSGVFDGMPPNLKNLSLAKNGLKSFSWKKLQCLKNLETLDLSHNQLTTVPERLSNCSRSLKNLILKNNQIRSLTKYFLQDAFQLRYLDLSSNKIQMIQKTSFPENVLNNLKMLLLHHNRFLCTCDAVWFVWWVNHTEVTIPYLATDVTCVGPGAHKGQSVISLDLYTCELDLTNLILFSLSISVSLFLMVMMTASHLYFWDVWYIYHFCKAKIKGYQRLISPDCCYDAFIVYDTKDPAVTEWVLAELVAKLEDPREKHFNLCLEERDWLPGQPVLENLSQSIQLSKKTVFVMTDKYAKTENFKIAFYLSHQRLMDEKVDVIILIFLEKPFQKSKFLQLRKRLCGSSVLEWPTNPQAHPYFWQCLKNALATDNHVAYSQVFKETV
Method: as §1, §2, §3, §4, §5, §6, §7, §8, §9, §10

SMILES	EC50 (hTLR8) [µM]	EC50 (hTLR7) [µM]
COCCOc1ncc2[nH]c(=O)n(Cc3ccc(CN4C[C@H]5CN(C)C[C@H]5C4)cc3)c2n1 [Example 12]	> 100	1 to 10
COCCOc1ncc2[nH]c(=O)n(Cc3ccc(CN4C5CCC4CC5)cc3)c2n1 [Example 53, 9-(4-((7-azabicyclo[2.2.1]heptan-7-yl)methyl)benzyl)-2-(2-methoxyethoxy)-7,9-dihydro-8H-purin-8-one]	> 100	1 to 10
COCCOc1ncc2[nH]c(=O)n(Cc3cccc(C(C)N4CCCC4)c3)c2n1 (centres unmarked) [Example 26, 2-(2-methoxyethoxy)-9-(3-(1-(pyrrolidin-1-yl)ethyl)benzyl)-7,9-dihydro-8H-purin-8-one]	> 100	10 to 100
COCCCCOc1ncc2[nH]c(=O)n(Cc3ccc(CN4CCCC4)cc3)c2n1 [Example 47, 9-(4-(pyrrolidin-1-ylmethyl)benzyl)-2-(4-methoxybutoxy)-7,9-dihydro-8H-purin-8-one]	> 100	1 to 10
COCCOc1ncc2[nH]c(=O)n(Cc3ccc(CN4CCCC4)cc3F)c2n1 [Example 63, 2-(2-methoxyethoxy)-9-(2-fluoro-4-(pyrrolidin-1-ylmethyl)benzyl)-7,9-dihydro-8H-purin-8-one]	> 100	1 to 10
O=c1[nH]c2cnc(OCCCOC(F)(F)F)nc2n1Cc1ccc(CN2CCCC2)cc1 [Example 50, 9-(4-(pyrrolidin-1-ylmethyl)benzyl)-2-(3-(trifluoromethoxy)propoxy)-7,9-dihydro-8H-purin-8-one]	> 100	0.001 to 1
CC(C)OCCOc1ncc2[nH]c(=O)n(Cc3ccc(CN4CCCC4)cc3)c2n1 [Example 64, 9-(4-(pyrrolidin-1-ylmethyl)benzyl)-2-(2-isopropoxyethoxy)-7,9-dihydro-8H-purin-8-one]	> 100	1 to 10
O=c1[nH]c2cnc(OCCOCC3CC3)nc2n1Cc1ccc(CN2CCCC2)cc1 [Example 65, 9-(4-(pyrrolidin-1-ylmethyl)benzyl)-2-(2-(cyclopropylmethoxy)ethoxy)-7,9-dihydro-8H-purin-8-one]	> 100	1 to 10
CCOCCOc1ncc2[nH]c(=O)n(Cc3ccc(CN4CCCC4)cc3)c2n1 [Example 37, 2-(2-ethoxyethoxy)-9-(4-(pyrrolidin-1-ylmethyl)benzyl)-7,9-dihydro-8H-purin-8-one]	> 100	1 to 10
CCCCOc1ncc2[nH]c(=O)n(Cc3ccc(CN4CCCC4)cc3)c2n1 [Example 66, 9-(4-(pyrrolidin-1-ylmethyl)benzyl)-2-butoxy-7,9-dihydro-8H-purin-8-one]	> 100	> 100
O=c1[nH]c2cnc(OCCOC(F)(F)F)nc2n1Cc1ccc(CN2CC=CC2)cc1 [Example 55]	> 100	0.001 to 1
COCCOc1nc(C)c2[nH]c(=O)n(Cc3ccc(CN4CCCC4)cc3)c2n1 [Example 58, 9-(4-(pyrrolidin-1-ylmethyl)benzyl)-6-methyl-2-(2-methoxyethoxy)-7,9-dihydro-8H-purin-8-one]	> 100	> 100
COCCNc1ncc2[nH]c(=O)n(Cc3cccc(CN4CCCC4)c3)c2n1 [Example 32, 2-((2-methoxyethyl)amine)-9-(3-(pyrrolidin-1-ylmethyl)benzyl)-7,9-dihydro-8H-purin-8-one]	> 100	> 100
COCCOc1ncc2[nH]c(=O)n(Cc3ccc(CN4CCCC4)cc3)c2n1 [Example 1, 2-(2-methoxyethoxy)-9-(4-(pyrrolidin-1-ylmethyl)benzyl)-7,9-dihydro-8H-purin-8-one]	> 100	1 to 10
COC(C)CCOc1ncc2[nH]c(=O)n(Cc3ccc(CN4CCCC4)cc3)c2n1 (centres unmarked) [Example 49, 9-(4-(pyrrolidin-1-ylmethyl)benzyl)-2-(3-methoxybutoxy)-7,9-dihydro-8H-purin-8-one]	> 100	0.001 to 1
COCCOc1ncc2nc(C)n(Cc3ccc(CN4CCCC4)cc3)c2n1 [Example 59, 2-(2-methoxyethoxy)-8-methyl-9-(4-(pyrrolidin-1-ylmethyl)benzyl)-9H-purine]	> 100	> 100
COCCOc1ncc2[nH]c(=O)n(Cc3ccc(CN4CCCCC4)cc3)c2n1 [Example 3, 2-(2-methoxyethoxy)-9-(4-(piperidin-1-ylmethyl)benzyl)-7,9-dihydro-8H-purin-8-one]	> 100	1 to 10
COCCOc1ncc2[nH]c(=O)n(Cc3cccc(CN4CCCC4)c3)c2n1 [Example 18]	> 100	1 to 10
COCCOc1nc(F)c2[nH]c(=O)n(Cc3ccc(CN4CCCC4)cc3)c2n1 [Example 70, 6-fluoro-2-(2-methoxyethoxy)-9-(4-(pyrrolidin-1-ylmethyl)benzyl)-7,9-dihydro-8H-purin-8-one]	> 100	10 to 100
COCCOc1ncc2[nH]c(=O)n(Cc3ccc(CN4CC5CCC4C5)cc3)c2n1 (centres unmarked) [Example 13, 2-(2-methoxyethoxy)-9-(4-((2-aza-bicyclo[2,2,1]heptan-2-yl)methyl)benzyl)-7,9-dihydro-8H-purin-8-one]	> 100	1 to 10
O=c1[nH]c2cnc(OCC3CCOCC3)nc2n1Cc1cccc(CN2CCCC2)c1 [Example 28, 9-(3-(pyrrolidin-1-ylmethyl)benzyl)-2-((tetrahydro-2H-pyran-4-yl)methoxy)-7,9-dihydro-8H-purin-8-one]	> 100	> 100
COCCOc1ncc2[nH]c(=O)n(Cc3ccc(C(C)N4CCCCC4)cc3)c2n1 (centres unmarked) [Example 15, 2-(2-methoxyethoxy)-9-(4-(1-(piperidin-1-yl)ethyl)benzyl)-7,9-dihydro-8H-purin-8-one]	> 100	0.001 to 1
